# Earlier results, collected in US20030157061A1, “Combinations of a cyclooxygenase-2 selective inhibitor and a TNFalpha antagonist and therapeutic uses therefor” (Pharmacia Corporation, priority 2001, published 2003).
# Test system: fibroblast growth factor-induced corneal angiogenesis
# Conditions: rats
compound,measurement,value
"Cc1ccc(-c2cc(C(F)(F)F)nn2-c2ccc(S(N)(=O)=O)cc2)cc1 [Celecoxib, 4-[5-(4-methylphenyl)-3-(trifluoromethyl)-1H-pyrazol-1-yl]benzenesulfonamide]",inhibition of fibroblast growth factor-induced corneal angiogenesis,potent inhibition
